Measured values as given in US8093028B2, “Engineered glycosyltransferases with expanded substrate specificity” (Wisconsin Alumni Research Foundation, priority 2007, dated 2012).

Key:
Format in all cases: biochemical
[1] = biological target: T1, OleD I112T (Streptomyces antibioticus, UniProt Q53685, I112T/P55A/R82V/R83E/T84P); assay: Specific activity with novobiocic acid or 4-Me-umb as acceptor and UDP-Glc; conditions: UDP-Glc donor
T1 construct: made in house; host or cells: E. coli (site-directed mutant of pET28/OleD)
Method: (§1) Determination of specific activity with 1 or 4 as acceptor. Enzyme reactions were carried out in a total volume of 100 μl/50 mM Tris-HCl (pH8.0) containing 5 mM MgCl2, 200 μM (FIG. 9: 1) or (FIG. 9: 4), 5 mM (FIG. 12: 5), and typically 10-50 μg pure enzyme. At a suitable time interval during which rate of product formation was linear with time (typically 2-20 min), reactions were quenched with 100 μl MeOH, and the samples centrifuged at 10,000 g for 10 min. Supernatants were analyzed by analytical reverse-phase HPLC with a Gemini 5μ C18 column (Phenomenex) using a gradient of 10-90% CH3CN in 0.1% trifluoroacetic acid (TFA)/H2O in 20 min, with detection at 254 nm. […] The identity of (FIG. 9: 7) was confirmed by LC-MS and NMR while the […] of glucoside (FIG. 9: 6) was confirmed by co-elution with a commercial standard and LC-MS analysis. HPLC peak areas were integrated, and the product concentrations calculated as a percent of the total peak area. Specific activity was expressed as nmols product formed/min/mg protein.

[2] = biological target: T2, OleD G340W (Streptomyces antibioticus, UniProt Q53685, G340W/P55A/R82V/R83E/T84P); assay: as above; conditions: UDP-Glc donor
T2 construct: made in house; host or cells: E. coli (site-directed mutant of pET28/OleD)
Method: as §1

[3] = biological target: T3, OleD S132F (Streptomyces antibioticus, UniProt Q53685, P55A/R82V/R83E/S132F/T84P); assay: as above; conditions: UDP-Glc donor
T3 construct: made in house; host or cells: E. coli (site-directed mutant of pET28/OleD)
Method: as §1

[4] = biological target: T4, OleD P67T (Streptomyces antibioticus, UniProt Q53685, P55A/P67T/R82V/R83E/T84P); assay: as above; conditions: UDP-Glc donor
T4 construct: made in house; host or cells: E. coli (site-directed mutant of pET28/OleD)
Method: as §1

[5] = biological target: T5, OleD A242V (Streptomyces antibioticus, UniProt Q53685, A242V/P55A/R82V/R83E/T84P); assay: as above; conditions: UDP-Glc donor
T5 construct: made in house; host or cells: E. coli BL21(DE3)pLysS (error-prone PCR clone in pET28a)
Method: as §1

[6] = biological target: T6, OleD P67T/S132F/A242V (Streptomyces antibioticus, UniProt Q53685, A242V/P67T/S132F); assay: Specific activity with novobiocic acid as acceptor and UDP-Glc; conditions: UDP-Glc donor
T6 construct: made in house; host or cells: E. coli (site-directed mutant of pET28/OleD)
Method: as §1

[7] = biological target: OleD P67T/I112K/A242V (Streptomyces antibioticus, UniProt Q53685, A242V/I112K/P67T); assay: as above; conditions: UDP-Glc donor
Method: as §1

[8] = biological target: T7, WT OleD (Streptomyces antibioticus, UniProt Q53685, P55A/R82V/R83E/T84P); assay: Fluorescence-based glycosyltransferase assay in E. coli crude cell extracts
T7 construct: made in house; host or cells: E. coli BL21(DE3)pLysS, plasmid pET28/OleD
Method: Individual colonies were used to inoculate wells of a 96-deep well microtitre plate wherein each well contained 1 ml of LB medium supplemented with 50 μg/ml kanamycin. Culture plates were tightly sealed with AeraSeal™ breathable film (Research Products International Corp.). After cell growth at 37° C. for 18 h with shaking at 350 rpm, 100 μl of each culture was transferred to a fresh deep-well plate containing 1 ml of LB medium supplemented with 50 μg/ml kanamycin. The original plate was sealed and stored at 4° C., or a glycerol copy made by mixing 100 μl of each culture with 100 µl 50% (v/v) glycerol and storing at −80° C. The freshly inoculated plate was incubated at 37° C. for 2-3 h with shaking at 350 rpm. […]
For the assay, cleared supernatant was mixed with an equal volume (501) of 50 mM Tris-HCl (pH 8.0) containing 10 mM MgCl2, 0.2 mM 4-Me-umb (FIG. 1: 4), and 1.0 mM UPDG (FIG. 3: 2) using a Biomek FX Liquid Handling Workstation (Beckman Coulter, Fullerton, Calif.). Upon mixing, the fluorescence at excitation 350 nm and emission 460 nm was measured using a FLUOstar Optima plate reader (BMG Labtechnologies, Durham, N.C.) and the reactions incubated for 4 h at 30° C., at which time the fluorescence measurement was repeated. Activity of the clones was expressed as the difference in fluorescence intensity between 0 h and 3 h.

[9] = biological target: T6, OleD P67T/S132F/A242V
Method: Kinetic parameters kcat and Km were determined with both 4-Me-umb FIG. 1: 4 and UPDG as variable substrates using assay conditions as described above. […] Each experiment was performed in triplicate. Initial velocities were fitted to the Michaelis-Menten equation using Sigma Plot.
Enzyme assays were carried out in a total volume of 500 μl 50 mM Tris-HCl (pH 8.0) containing 5 mM MgCl2, and 50 μg pure enzyme. Kinetic parameters kcat and Km were determined with both 4-Me-umb FIG. 1: 4 and UPDG (FIG. 3: 2) as variable substrates. […] Each experiment was performed in triplicate. Initial velocities were fitted to the Michaelis-Menten equation using Sigma Plot.

Row | SMILES | specific activity, I112T compared to WT OleD [1] | specific activity, G340W compared to WT OleD [2] | improvement in specific activity, S132F compared to WT OleD [3] | improvement in specific activity, P67T compared to WT OleD [4] | improvement in specific activity, A242V compared to WT OleD [5] | improvement in glucosylation activity, P67T/S132F/A242V compared to WT OleD [6] | improvement in specific activity, P67T/I112K/A242V over P67T/S132F/A242V [7] | improvement, P67T/I112K/A242V over the parent P67T/I112T/A242V ([7]; purified enzymes) | activity in E. coli pET28/OleD crude cell extracts versus extracts not over-expressing OleD [8] [fold] | kcat ([9]; acceptor 4 varied) [s⁻¹] | efficiency of glucosylation compared to the WT enzyme ([9]; kcat/Km, unnatural acceptor 4-methyl-umbelliferone) [fold] | Km ([9]; read-out: apparent Km, named substrate varied, other substrate fixed) [µM]
1 | CC(C)=CCc1cc(C(=O)Nc2c(O)c3ccc(O)c(C)c3oc2=O)ccc1O [novobiocic acid (29), novobiocic acid] | 7.4 fold | non-beneficial | two-three fold | two-three fold | two-three fold | five-fold | twenty-eight | seven |  |  |  | 
2 | Cc1cc(=O)oc2cc(O)ccc12 [4-Me-umb (4), 7-hydroxy-4-methylcoumarin] | approximately 0.5 fold | approximately 0.5 fold | ~2.6 fold | approximately 7 fold | ~2.3 fold |  |  |  | ~2 | 0.0247 | ~60 | 140
